In US4703050A, “Methods of inducing neuron protective activity” (Roussel Uclaf, priority 1985, dated 1987):

How the values were obtained:
Assay type in all cases: in vivo
[1] = Hypobaric Anoxemia Test; conditions: male mice, 15 min before 190 mm Hg, vs control animals
Protocol: Male mice weighing 20-22 g were used having eaten nothing for 5 hours and they were divided into groups of 10 animals. The product to be tested was administered to the animals subcutaneously. […] The increase in the survival time, expressed as a percentage was calculated for the treated animals in comparison with control animals submitted to the same conditions.

[2] = system: enolase γγ; assay: Enolase Test (kainic acid-induced neuron lesion); conditions: mice, 1 mg/kg intraperitoneally
Protocol: Injured cerebral cells release enolase γγ which is a specific indicator of neuron lesion. In this test, the lesions were induced in the mice by sub-cutaneous injection of 35 mg/kg of kainic acid.

[3] = Acute Toxicity Study (LD0); conditions: mice, oral administration
Excerpt: The result obtained was LD0 in mg/kg =200.

[4] = Asphysic Anoxemia Test (electroencephalogram survival); conditions: mice, curare, 2 mg/kg, respiratory assistance stopped; for increase in the time necessary for the electroencephalogram to disappear: vs control animals
Protocol: Curare was administered to mice which were placed under assisted respiration and the products to be tested were administered at a dose of 2 mg/kg, and the respiratory assistance was stopped.

| SMILES | % Increase in the survival time ([1]; 1 mg/kg subcutaneously) [%] | % Increase in the survival time ([1]; 10 mg/kg subcutaneously) [%] | decrease in the serous concentration of enolase ([2]; 1 hour before 35 mg/kg s.c. kainic acid) [%] | protection of cerebral cells in the affected area ([2]; 1 hour before kainic acid) | LD0 (maximum dose which did not cause mortality in 8 days) [3] [mg/kg] | electro-encephalographic survival [4] | increase in the time necessary for the electroencephalogram to disappear [4] [%] |
| --- | --- | --- | --- | --- | --- | --- | --- |
| CSC[C@@H]1C[C@@H]2c3cccc4[nH]cc(c34)C[C@H]2N(C)C1 [Product A, 6-methyl-8β-(methylthiomethyl)-ergoline] | 12 | 57 | 29 | protected the cerebral cells in the affected area | 200 | prolong the electro-encephalographic survival | 10 |
| CSC[C@@H]1C=C2c3cccc4[nH]cc(c34)C[C@H]2N(C)C1 [Product B, 6-methyl-8β-methylthiomethyl-9,10-didehydroergoline] |  |  |  |  |  | prolong the electro-encephalographic survival | 11 |
